{"source": "paper PMC5289470", "about": "“The biodistribution of 5-[^18F]fluoropyrazinamide in Mycobacterium tuberculosis-infected mice determined by positron emission tomography” (PLoS ONE, 2017)", "origin": "cited, not measured here", "system": "PZA-resistant M. tuberculosis isolates", "conditions": "ref [14], [30]; cited from earlier work"}
{"molecule": "NC(=O)c1cnc(Cl)cn1", "note": "[5-Cl-PZA, 5-Chloropyrazinamide]", "values": [{"measurement": "in vitro activity against PZA-resistant M. tuberculosis isolates", "value": "has in vitro activity"}]}
